Data taken from patent publication US10464929B2, “Organic molecules for terahertz tagging applications” (Council of Scientific & Industrial Research, priority 2014, dated 2019).

Test: Solubility of the THz molecular tags in various solvents
Assay type: physicochemical

Structure (SMILES) | Solubility in THF (solvent THF (tetrahydrofuran)) | Solubility in Diethyl Ether (solvent Diethyl Ether) | Solubility in Toluene (solvent Toluene)
O=C(NCCNC(=O)Nc1ccccc1)Nc1ccccc1 [PhU—C2—UPh, 1,1′-(ethane-1,2-diyl)bis(3-phenylurea)] | Turbid | – | –
O=C(Nc1ccccc1)Nc1cccc(NC(=O)c2ccccc2)n1 [PhU—Ph—AP, N-(6-(3-phenylureido)pyridin-2-yl)benzamide] | – | Turbid | Turbid
